≈ marks a conversion by molar mass, not a printed value.

The subject of the test is Serratia marcescens. Description: Antimicrobial activity against Serratia marcescens AW isolated from parotidectomy patient. The format is functional.
In turn, `C[C@@H](O)[C@H]1C(=O)N2C(C(=O)O)=C(S[C@@H]3CN[C@H](C(=O)N(C)C)C3)[C@H](C)[C@H]12` [MEROPENEM] registered an MIC of 8 µg/mL (≈ 20.9 µM).

Take `C[C@@H](O)[C@H]1C(=O)N2C(C(=O)O)=C(SCCNC=N)C[C@H]12` [IMIPENEM ANHYDROUS]: inhibition of growth (MIC) required 32 µg/mL (≈ 107 µM).

In the case of `C[C@@H](O)[C@H]1C(=O)N2C(C(=O)O)=C(S[C@@H]3CN[C@H](C(=O)Nc4cccc(C(=O)O)c4)C3)[C@H](C)[C@H]12` [ERTAPENEM], the lowest concentration to inhibit growth (MIC) was 4 µg/mL (≈ 8.41 µM).

These data come from ChEMBL document CHEMBL1145467, “SME-2-producing Serratia marcescens isolate from Switzerland” (2007).
